Converted amounts (≈) assume the structure as drawn. Like-named read-outs stand apart in the source and are kept apart here.
Experiments:
Assay in all cases: microbe, parasite or virus in culture
Format in all cases: cell-based, Escherichia coli
E. coli K-12 MG1655 = details: Escherichia coli
Experimental: (§1) The broth microdilution method was used to measure the MIC values of antibiotics and peptides according to the Clinical and Laboratory Standards Institute guidelines. The MIC value is defined as the lowest drug concentration without visible bacteria.
Eight antibiotics and ten AMPs at the sub-inhibitory concentration were prepared. A 300-µL system, including 260 µL of MH broth, 30 µL of prepared drug, and 10 µL of bacterial culture, was used for resistance passages. After 12 h of incubation at 37℃ and 200 rpm, 10 µL of the above bacterial culture was added into the new sterile drug-containing broth. MIC values of bacterial culture were determined. The drug concentration was adjusted according to the MIC value change until the end of the 120 passages.

AMP120 (evolved MG1655) = details: Escherichia coli, MG1655; broth microdilution; ampicillin-evolved strain
Source text: (§2) To ensure the stable resistance evolution and inheritance of MG1655 under different drugs, we randomly selected three monoclonals from the evolved strains. The final antibiotic-evolved strains were designated as AMP120, AZI120, CHL80, CIP120, DOX120, KAN80, NIT70, and TMP30, while the final AMP-evolved strains were named COL120, Ind120, Omi120, Pex120, PGLA120, Pleu120, R8120, SAAP120, LI120, and SLAP120.
as §1

NIT70 (evolved MG1655) = details: Escherichia coli, MG1655; broth microdilution; nitrofurantoin-evolved strain
Source text: as §2, §1

COL120 (evolved MG1655) = details: for MIC: Escherichia coli, MG1655, broth microdilution, colistin-evolved strain
Source text: as §2, §1

TMP30 (evolved MG1655) = details: Escherichia coli, MG1655; broth microdilution; trimethoprim-evolved strain
Source text: as §2, §1

AZI120 (evolved MG1655) = details: Escherichia coli, MG1655; broth microdilution; azithromycin-evolved strain
Source text: as §2, §1

DOX120 (evolved MG1655) = details: Escherichia coli, MG1655; broth microdilution; doxycycline-evolved strain
Source text: as §2, §1

CIP120 (evolved MG1655) = details: Escherichia coli; broth microdilution; ciprofloxacin-evolved strain
Source text: as §2, §1

KAN80 (evolved MG1655) = details: for MIC: Escherichia coli, MG1655, broth microdilution, kanamycin-evolved strain
Source text: as §2, §1

CHL80 (evolved MG1655) = details: Escherichia coli, MG1655; broth microdilution; chloramphenicol-evolved strain
Source text: as §2, §1

[1] = MG1655, 12 h, read-out: MIC of MG1655 under the pressure of the same drug, generation 10
[2] = MG1655, read-out: MIC of MG1655 under the pressure of the same drug, generation primary
[3] = MG1655, as E2, generation 20, read-out: MIC of MG1655 under the pressure of the same drug, generation 20
[4] = MG1655, as E2, generation 30, read-out: MIC of MG1655 under the pressure of the same drug, generation 30
[5] = MG1655, as E2, generation 40, read-out: MIC of MG1655 under the pressure of the same drug, generation 40
[6] = MG1655, as E2, generation 50, read-out: MIC of MG1655 under the pressure of the same drug, generation 50
[7] = MG1655, as E2, generation 60, read-out: MIC of MG1655 under the pressure of the same drug, generation 60
[8] = MG1655, as E2, generation 70, read-out: MIC of MG1655 under the pressure of the same drug, generation 70
[9] = MG1655, as E2, generation 80, read-out: MIC of MG1655 under the pressure of the same drug, generation 80
[10] = MG1655, as E2, generation 90, read-out: MIC of MG1655 under the pressure of the same drug, generation 90
[11] = MG1655, as E2, generation 100, read-out: MIC of MG1655 under the pressure of the same drug, generation 100
[12] = MG1655, as E2, generation 110, read-out: MIC of MG1655 under the pressure of the same drug, generation 110
[13] = MG1655, as E2, generation 120, read-out: MIC of MG1655 under the pressure of the same drug, generation 120

| Structure (SMILES) | MIC (E. coli K-12 MG1655; [1]) | MIC (E. coli K-12 MG1655; [2]) | MIC (E. coli K-12 MG1655; [3]) | MIC (E. coli K-12 MG1655; [4]) | MIC (E. coli K-12 MG1655; [5]) | MIC (E. coli K-12 MG1655; [6]) | MIC (E. coli K-12 MG1655; [7]) | MIC (E. coli K-12 MG1655; [8]) | MIC (E. coli K-12 MG1655; [9]) | MIC (E. coli K-12 MG1655; [10]) | MIC (E. coli K-12 MG1655; [11]) | MIC (AMP120 (evolved MG1655)) | MIC (NIT70 (evolved MG1655)) | MIC (COL120 (evolved MG1655)) | MIC (TMP30 (evolved MG1655)) | MIC (AZI120 (evolved MG1655)) | MIC (DOX120 (evolved MG1655)) | MIC (CIP120 (evolved MG1655)) | MIC (KAN80 (evolved MG1655)) | MIC (CHL80 (evolved MG1655)) | other results |
| --- | --- | --- | --- | --- | --- | --- | --- | --- | --- | --- | --- | --- | --- | --- | --- | --- | --- | --- | --- | --- | --- |
| CC1(C)S[C@@H]2[C@H](NC(=O)[C@H](N)c3ccccc3)C(=O)N2[C@H]1C(=O)O [AMP, Ampicillin] | 8 µg/mL | 4 µg/mL | 8 µg/mL | 8 µg/mL | 16 µg/mL | 16 µg/mL | 16 µg/mL | 16 µg/mL | 16 µg/mL | 32 µg/mL | 32 µg/mL | 64 µg/mL (≈ 183 µM) | 4 µg/mL (≈ 11.4 µM) | 4 µg/mL (≈ 11.4 µM) | 4 µg/mL (≈ 11.4 µM) | 2 µg/mL (≈ 5.72 µM) | 32 µg/mL (≈ 91.6 µM) | 16 µg/mL (≈ 45.8 µM) | 4 µg/mL (≈ 11.4 µM) | 64 µg/mL (≈ 183 µM) | MIC (E. coli K-12 MG1655; [12]): 64 µg/mL; MIC (E. coli K-12 MG1655; [13]): 64 µg/mL |
| CC[C@H]1OC(=O)[C@H](C)[C@@H](O[C@H]2C[C@@](C)(OC)[C@@H](O)[C@H](C)O2)[C@H](C)[C@@H](O[C@@H]2O[C@H](C)C[C@H](N(C)C)[C@H]2O)[C@](C)(O)C[C@@H](C)CN(C)[C@H](C)[C@@H](O)[C@]1(C)O [AZI, Azithromycin] | 2 µg/mL | 2 µg/mL | 2 µg/mL | 2 µg/mL | 2 µg/mL | 4 µg/mL | 4 µg/mL | 4 µg/mL | 4 µg/mL | 4 µg/mL | 4 µg/mL | 1 µg/mL (≈ 1.34 µM) | 4 µg/mL (≈ 5.34 µM) | 0.5 µg/mL (≈ 0.668 µM) | 16 µg/mL (≈ 21.4 µM) | 16 µg/mL (≈ 21.4 µM) | 2 µg/mL (≈ 2.67 µM) | 4 µg/mL (≈ 5.34 µM) | 2 µg/mL (≈ 2.67 µM) | 2 µg/mL (≈ 2.67 µM) | MIC (E. coli K-12 MG1655; [12]): 8 µg/mL; MIC (E. coli K-12 MG1655; [13]): 16 µg/mL; collateral sensitivity of COL120 (fold change of MIC vs wild-type MG1655) (COL120 (evolved MG1655); MIC of COL120 compared with MG1655): exceeding fourfold |
| O=C(N[C@H](CO)[C@H](O)c1ccc([N+](=O)[O-])cc1)C(Cl)Cl [CHL, Chloramphenicol] | 8 µg/mL | 8 µg/mL | 16 µg/mL | 32 µg/mL | 64 µg/mL | 128 µg/mL | 256 µg/mL | 256 µg/mL | 512 µg/mL |  |  | 16 µg/mL (≈ 49.5 µM) | 8 µg/mL (≈ 24.8 µM) | 8 µg/mL (≈ 24.8 µM) | 8 µg/mL (≈ 24.8 µM) | 8 µg/mL (≈ 24.8 µM) | 64 µg/mL (≈ 198 µM) | 32 µg/mL (≈ 99 µM) | 2 µg/mL (≈ 6.19 µM) | 512 µg/mL (≈ 1580 µM) | collateral sensitivity of KAN80 (fold change of MIC vs wild-type MG1655) (KAN80 (evolved MG1655); MIC of KAN80 compared with MG1655): exceeding fourfold |

Source: PMC11915801, “Evolutionary trajectory of bacterial resistance to antibiotics and antimicrobial peptides in Escherichia coli” (mSystems, 2025)
